Non-standard residues stand in square brackets, D forms with d. Residues, ends and D or L forms follow the SMILES beside them. ξ: configuration not given here. *: point of attachment. Nle = CCCC[C@H](N)C(=O)O; Nva = CCC[C@H](N)C(=O)O; Cbz = O=C(OCc1ccccc1)*; ξI = CCC(C)C(N)C(=O)O; OtBu = CC(C)(C)O*
Columns and labels:
EV-A71 2A protease = EV-A71 2A protease (Human enterovirus 71, UniProt Q66478); test: biochemical; conditions: for IC50: read-out: EVA71 2A IC50
EV-A71 3C protease = EV-A71 3C protease (Human enterovirus 71, UniProt Q66478); test: biochemical
SARS-CoV-2 = test: Antiviral CPE assay against SARS-CoV-2; type: cell-based; conditions: Severe acute respiratory syndrome coronavirus 2
[1] = system: A/California/07/2009 (H1N1); test: Counter screening against influenza virus in plaque assay; type: cell-based; conditions: read-out: Antiviral activity against A/California/07/2009 (H1N1)
in vitro [2] = test: in vitro
SARS-CoV = test: microbe, parasite or virus in culture; conditions: Severe acute respiratory syndrome coronavirus, read-out: EC50 against SARS-CoV
MERS-CoV = test: microbe, parasite or virus in culture; conditions: Middle East respiratory syndrome-related coronavirus, read-out: EC50 against MERS-CoV
[3] = Cytotoxicity CPE assay (neutral red), MDCK; type: cell-based; conditions: dog, MDCK cells, mean ± S.E.
[4] = Cytotoxicity CPE assay (neutral red), Vero; type: cell-based; conditions: African green monkey, Vero cells, mean ± S.E.
[5] = Cytotoxicity CPE assay (neutral red), HCT-8; type: cell-based; conditions: human, HCT-8 cells, mean ± S.E.
[6] = Cytotoxicity CPE assay (neutral red), A549; type: cell-based; conditions: human, A549 cells, mean ± S.E.
[7] = Cytotoxicity CPE assay (neutral red), Caco-2; type: cell-based; conditions: human, Caco-2 cells, mean ± S.E.
[8] = Cytotoxicity CPE assay (neutral red), BEAS2B; type: cell-based; conditions: human, BEAS2B cells, mean ± S.E.
[9] = Antiviral CPE assay against SARS-CoV-2; type: cell-based
in vitro [10] = test: in vitro; remark: listed apart in the source
[11] = Cellular cytotoxicity in multiple cell lines; conditions: human, dog, African green monkey
SARS-CoV 3CL^pro = SARS-CoV 3CL^pro (Severe acute respiratory syndrome coronavirus, UniProt P0C6X7); conditions: read-out: IC50 against the SARS-CoV 3CL^pro; cited from earlier work

EV-A71 2A protease, sequence (Q66478 863-1012): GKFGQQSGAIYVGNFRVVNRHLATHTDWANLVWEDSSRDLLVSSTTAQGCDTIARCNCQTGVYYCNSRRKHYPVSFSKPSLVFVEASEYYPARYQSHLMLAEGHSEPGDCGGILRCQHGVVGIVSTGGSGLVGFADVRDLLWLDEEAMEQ
EV-A71 3C protease, sequence (Q66478 1549-1731): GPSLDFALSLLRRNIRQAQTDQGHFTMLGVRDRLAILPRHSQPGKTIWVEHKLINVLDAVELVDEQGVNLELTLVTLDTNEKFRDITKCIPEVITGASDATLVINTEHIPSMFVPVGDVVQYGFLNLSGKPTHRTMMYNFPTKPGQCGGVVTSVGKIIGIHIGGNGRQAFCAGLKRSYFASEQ

CC(C)(C)NC(=O)N[C@H](C(=O)N1C[C@H]2[C@@H]([C@H]1C(=O)NC(CC1CCC1)C(=O)C(N)=O)C2(C)C)C(C)(C)C (some centres unmarked) [Boceprevir (28), Boceprevir] gave an IC50 (EV-A71 2A protease) greater than 20 µM, an IC50 (EV-A71 3C protease) greater than 20 µM and an EC50 (SARS-CoV-2) of 1.9 µM. It also gave an EC50 [1] greater than 20 µM, a CC50 (in vitro [2]) greater than 47 µM and an EC50 (SARS-CoV) greater than 47 µM. The EC50 (MERS-CoV) was greater than 100 µM.

In the case of CCCC[C@@H](C=O)NC(=O)[C@H](CC(C)C)NC(=O)[C@H](CC(C)C)NC(C)=O [Calpain inhibitor 1 (ALLN) (59), Calpain inhibitor 1] (Ac-Leu-Leu-[Nle]-aldehyde), the IC50 (EV-A71 2A protease) is reported as greater than 20 µM and the IC50 (EV-A71 3C protease) is reported as greater than 20 µM.

With CSCC[C@@H](C=O)NC(=O)[C@H](CC(C)C)NC(=O)[C@H](CC(C)C)NC(C)=O [Calpain inhibitor II (61), Calpain inhibitor II] (Ac-Leu-Leu-Met-aldehyde) the IC50 (EV-A71 2A protease) was greater than 20 µM, the IC50 (EV-A71 3C protease) was greater than 20 µM and the CC50 at 48 h [3] was greater than 100 µM. For the same compound, the CC50 at 48 h [4] was greater than 100 µM, the CC50 at 48 h [5] was greater than 100 µM and the CC50 at 48 h [6] was greater than 100 µM. The CC50 at 48 h [7] was greater than 100 µM, the CC50 at 48 h [8] was greater than 100 µM and the CC50 [9] was greater than 100 µM. For the same compound, the EC50 (SARS-CoV-2) was 1.2 µM, the EC50 [1] was greater than 20 µM and the CC50 (in vitro [2]) was greater than 100 µM. It also gave a CC50 (in vitro [10]) greater than 100 µM, an EC50 (SARS-CoV) of 3.6 µM and an EC50 (MERS-CoV) of 14 µM. It also gave a CC50 at 48 h [11] greater than 100 µM.

Compound CC(C)C[C@@H](C=O)NC(=O)[C@@H](NS(=O)(=O)c1ccc(F)cc1)C(C)C [Calpain inhibitor VI (58), Calpain inhibitor VI] has an IC50 (EV-A71 3C protease) greater than 20 µM.

Work on CCC[C@H](NC(=O)[C@H](CC(C)C)NC(=O)OCc1ccccc1)C(=O)C(=O)NCc1ccccn1 [Calpain inhibitor XII (62), Calpain inhibitor XII] yielded an IC50 (EV-A71 2A protease) greater than 20 µM, an IC50 (EV-A71 3C protease) greater than 20 µM and a CC50 at 48 h [3] of 60.4 ± 2.28 µM. For the same compound, the CC50 at 48 h [4] was greater than 100 µM, the CC50 at 48 h [5] was 73.3 ± 11.8 µM and the CC50 at 48 h [6] was greater than 100 µM. It also gave a CC50 at 48 h [7] of 82.02 ± 0.37 µM, a CC50 at 48 h [8] of 78.9 ± 13.7 µM and a CC50 [9] greater than 50 µM. The EC50 (SARS-CoV-2) was 0.3 µM, the EC50 [1] was greater than 20 µM and the EC50 (SARS-CoV) was 7.4 µM. The EC50 (MERS-CoV) was 7.9 µM and the CC50 at 48 h [11] was greater than 50 µM.

With CCCC[C@@H](C=O)NC(=O)[C@H](CC(C)C)NC(=O)OCc1ccccc1 [Calpeptin (56), Calpeptin] the IC50 (EV-A71 2A protease) was greater than 20 µM and the IC50 (EV-A71 3C protease) was greater than 20 µM.

In the case of CC(C)C[C@H](NC(=O)OCc1ccccc1)C(=O)N[C@@H](C[C@@H]1CCNC1=O)C(O)S(=O)(=O)[O-].[Na+] (some centres unmarked) [GC-376 (64), GC-376], the “activity against the EV-A71 2A protease” value (EV-A71 2A protease) is reported as “not active”, the IC50 (EV-A71 2A protease) is reported as greater than 20 µM and the IC50 (EV-A71 3C protease) is reported as 0.136 ± 0.025 µM. The “inhibition against the EV-A71 3C protease” value (EV-A71 3C protease) was “potent inhibition”, the CC50 at 48 h [3] was greater than 100 µM and the CC50 at 48 h [4] was greater than 100 µM. It also gave a CC50 at 48 h [5] greater than 100 µM, a CC50 at 48 h [6] greater than 100 µM and a CC50 at 48 h [7] greater than 100 µM. It also gave a CC50 at 48 h [8] greater than 100 µM, a CC50 [9] greater than 100 µM and an EC50 (SARS-CoV-2) of 1.9 µM. The EC50 [1] was greater than 20 µM, the CC50 (in vitro [2]) was greater than 100 µM and the CC50 (in vitro [10]) was greater than 100 µM. For the same compound, the EC50 (SARS-CoV) was […], the EC50 (MERS-CoV) was […] and the CC50 at 48 h [11] was greater than 100 µM.

Compound CCC[C@@H](C=O)NC(=O)[C@H](CC(C)C)NC(=O)[C@H](CC(C)C)NC(=O)OCc1ccccc1 [MG-115 (60), MG-115] (Cbz-Leu-Leu-[Nva]-aldehyde) has an IC50 (EV-A71 2A protease) greater than 20 µM and an IC50 (EV-A71 3C protease) greater than 20 µM.

Work on CC(C)C[C@@H](C=O)NC(=O)[C@H](CC(C)C)NC(=O)[C@H](CC(C)C)NC(=O)OCc1ccccc1 [MG-132 (43), MG-132] (Cbz-Leu-Leu-Leu-aldehyde) yielded an IC50 (EV-A71 2A protease) greater than 20 µM, an IC50 (EV-A71 3C protease) greater than 20 µM and an EC50 (SARS-CoV-2) of 0.87 µM. For the same compound, the CC50 (in vitro [2]) was greater than 0.7 µM, the EC50 (SARS-CoV) was greater than 0.7 µM and the EC50 (MERS-CoV) was greater than 10 µM.

Compound CCCC[C@H](NC(=O)[C@@H]1[C@@H]2[C@H](CN1C(=O)[C@@H](NC(=O)NC1(CS(=O)(=O)C(C)(C)C)CCCCC1)C(C)(C)C)C2(C)C)C(=O)C(=O)NC1CC1 [Narlaprevir (29), Narlaprevir] has an IC50 (EV-A71 2A protease) greater than 20 µM and an IC50 (EV-A71 3C protease) greater than 20 µM.

In the case of CCC(C)C(NC(=O)OCc1ccccc1)C(=O)N[C@@H](CCC(=O)OC(C)(C)C)C(=O)N[C@@H](C)C(=O)N[C@H](C=O)CC(C)C (some centres unmarked) [PSI (63), PSI] (Cbz-[ξI]E(OtBu)AL-aldehyde), the IC50 (EV-A71 2A protease) is reported as 1.22 µM and the IC50 (EV-A71 3C protease) is reported as 13.7 ± 3.86 µM.

With CCOC(=O)/C=C/[C@H](C[C@@H]1CCNC1=O)NC(=O)[C@@H](CC(=O)[C@@H](NC(=O)c1cc(C)on1)C(C)C)Cc1ccc(F)cc1 [Rupintrivir (65), Rupintrivir] the “activity against the EV-A71 2A protease” value (EV-A71 2A protease) was “not active”, the IC50 (EV-A71 2A protease) was greater than 20 µM and the IC50 (EV-A71 3C protease) was 0.042 ± 0.014 µM. The “inhibition against the EV-A71 3C protease” value (EV-A71 3C protease) was “potent inhibition” and the IC50 (SARS-CoV 3CL^pro) was greater than 100 µM.

Source: patent publication US12715896B2 (priority 2020, dated 2026)
